Data reported in patent US10058493B2, “Oral care compositions and methods of use” (COLGATE-PALMOLIVE COMPANY, priority 2016, dated 2018).
Entries after “also recorded” stand apart in the source; their conditions may differ.

Key:
Parameters in all cases: species or system human
[1] = Buffering effect on pH of saliva following sucrose challenge (bacterial acid production); conditions: for effect on pH drop after sucrose challenge versus untreated control: Donors A-C, range of concentrations, 2, 4, 6 hours and overnight
Procedure: (§1) Aqueous solutions containing arginine and zinc salts were created to carry out the following Examples. Solution 1 was prepared by mixing L-arginine (0.375 g), zinc oxide (ZnO, 0.25 g), and zinc citrate trihydrate (0.125 g) in deionized water (24.25 mL). These values correspond to the following percentages by mass: 1.5% L-arginine, 1% ZnO, 0.5% zinc citrate trihydrate. Additional control solutions were prepared of each regent alone at equal concentrations. Each solution was diluted to 25 g total mass with deionized water.
Paraffin-stimulated whole saliva was collected from three healthy subjects (Donors A-C). Each saliva sample was mixed by ordinary means in the art. Prior to analysis, the ex-vivo saliva samples were pretreated with aliquots of the simple solutions to give a range of active dilutions (i.e., total Zn^2+ concentration of about 0-3000 ppm) including an untreated control in order to test for buffering effect against sucrose challenge as a function of zinc concentration. An initial pH of the treated sample was obtained. A sucrose solution (5%, 1 mL) was added to each saliva sample. The resultant was mixed for and then incubated at 37° C. and the pH was monitored at 2 hours, 4 hours, 6 hours, and overnight. Zinc concentration in each sample was determined by ICP-AES.
Further experiments were conducted to ensure that zinc oxide/zinc citrate/arginine, not its constituent parts, was needed to achieve the buffering capacity improvement described. The solutions tested were prepared according to the specifications as laid out in Table 3 above.

[2] = Buffering effect on pH of saliva following acid challenge with cola beverage; conditions: cola titration; 0.0625% reagent; FIG. 2
Procedure: as §1
Paraffin-stimulated whole saliva was collected from a healthy subject. Each saliva sample was mixed by an appropriate means. Immediately prior to analysis, the ex-vivo saliva samples were pretreated with aliquots of Solution 1 to give a range of active dilutions. A control sample containing untreated whole saliva was also prepared for comparison. The dilutions were prepared as in Table 2.
The samples as described in Table 2 were tested for buffering effect on the pH of saliva following acid challenge with a cola beverage. Initial pH values of the treated samples were obtained. A cola beverage (1 mL) was added to the saliva sample. The resultant was mixed for 30 seconds at room temperature at the conclusion of which the pH of the sample was recorded. This process was repeated step-wise up to a total of 40 mL of cola. […]

[3] = Buffering effect on pH of saliva following acid challenge with dilute hydrochloric acid; conditions: 0.01 M HCl 6 mL; for acid buffering effect / pH of treated saliva after acid exposure: 20 min; for acid buffering effect: room temperature, Donors 1-3; for pH of treated saliva after acid exposure: all donors
Procedure: as §1
Paraffin-stimulated whole saliva was collected from three healthy subjects (Donors 1-3). Each saliva sample was mixed by ordinary means in the art. Immediately prior to analysis, the ex-vivo saliva samples were pretreated with aliquots of the simple solutions to give a range of active dilutions (i.e., total Zn^2+ concentration of about 0-1500 ppm) including an untreated control. The concentrations of actives (i.e., zinc oxide/zinc citrate/arginine, L-arginine, zinc oxide, zinc citrate) were varied between 0.0% to 50% across all samples, as shown in FIGS. 5-10.
An initial pH of the treated sample was obtained. Dilute hydrochloric acid (HCl, 0.01 M, 6 mL) was added to each saliva sample. The resultant was mixed for 20 minutes at room temperature. The pH of the sample was recorded at the conclusion of the reaction time. Zinc concentration in each sample was determined by ICP-AES.

[4] = Buffering effect on pH of saliva following acid challenge with orange juice; conditions: 0.0625% reagent in saliva (Table 3); FIG. 4
Procedure: as §1
Four solutions containing whole saliva and zinc oxide/zinc citrate/arginine at varying proportions were prepared in accordance with the methods laid out in Example 1 above. The solutions contained the same concentrations as Samples 1-4 as defined in Table 2. The samples were tested for buffering effect on the pH of saliva following acid challenge with orange juice. Initial pH values of the treated samples were obtained. Orange juice (0.1 mL) was added to the saliva sample. The resultant was mixed for 30 seconds at room temperature at the conclusion of which the pH of the sample was recorded. This process was repeated step-wise up to a total of 3.0 mL of orange juice. After this point, orange juice was added to the samples in an amount of 0.5 mL up to 5.0 mL. […]

SMILES | buffering effect of the 100 ppm arginine solution ([1]; donor C, FIG. 14) | buffering effect of the 100 ppm arginine solution ([1]; donors A or B, FIGS. 12-13) | shift of isoelectric point in comparison to the untreated sample [2] | amount of solution able to match the buffering effect of 200 μL or less zinc oxide/zinc citrate/arginine ([3]; FIGS. 5-7) | effect on pH drop after sucrose challenge versus untreated control [1] | acid buffering effect ([3]; FIGS. 5-7) | pH of treated saliva after acid exposure [3] | ability to buffer the acidic orange juice compared with controls [4]
N=C(N)NCCC[C@H](N)C(=O)O [arginine, L-arginine] | modest buffering was observed | not seen | acid shifted the isoelectric point in comparison to the untreated sample providing no acid neutralization benefit | > 500 µL |  |  |  | 
O.O.O.O=C([O-])CC(O)(CC(=O)[O-])C(=O)[O-].O=C([O-])CC(O)(CC(=O)[O-])C(=O)[O-].[Zn+2].[Zn+2].[Zn+2] [zinc citrate, zinc citrate trihydrate] |  |  | acid shifted the isoelectric point in comparison to the untreated sample providing no acid neutralization benefit |  | Buffering effects were observed over the untreated control of each of the donors | little to no buffering effect at all | below 4.0 | no benefit in comparison the untreated control
[O]=[Zn] [zinc oxide] |  |  |  |  | Buffering effects were clearly observed over the untreated control of each of the donors | some pH stabilization; also recorded: not showing a dose response above 0.1% treatment | lower in saliva treated with ZnO than zinc oxide/zinc citrate/arginine treated saliva | 
